The assay has as its system P388 leukemia ip, CD2F1 mice, survival T/C. Put plainly: NCI In Vivo Anticancer Drug Screen. Data for tumor model P388 Leukemia (intraperitoneal) in CD2F1 (CDF1) mice. Particulars: endpoint: median survival time, higher = longer survival. Summed up: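 Mice carrying the transplanted tumor received test compound or vehicle. Survival was recorded in each group, and the value is the treated-group measurement divided by that of the vehicle-treated control group.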

[1] abbreviates: dose: 50.0 mg/kg/injection, schedule: Q01DX005 (ip), vehicle: Klucel (hydroxypropylcellulose) (HPC).
Where [2] appears, read: dose: 100.0 mg/kg/injection, schedule: Q01DX005 (ip), vehicle: Klucel (hydroxypropylcellulose) (HPC).
[3] abbreviates: dose: 200.0 mg/kg/injection, schedule: Q01DX005 (ip), vehicle: Klucel (hydroxypropylcellulose) (HPC).
[4] abbreviates: dose: 50.0 mg/kg/injection, schedule: Q01DX005 (ip), vehicle: saline with Tween-80.
[5] abbreviates: dose: 100.0 mg/kg/injection, schedule: Q01DX005 (ip), vehicle: saline with Tween-80.

“And” between values parts separate entries of the source, which are not always exact repeats. Equal entries are not always repeated. Toxic doses and inconclusive results are not listed.

With `Nc1nc(N)nc(CNc2c(Br)cc(Br)cc2Br)n1`, the T/C runs as follows: (dose: 60.0 mg/kg/injection, schedule: Q01DX005 (ip), vehicle: saline with Tween-80) 93 % of control; (dose: 120.0 mg/kg/injection, schedule: Q01DX005 (ip), vehicle: saline with Tween-80) 101 % of control; (dose: 240.0 mg/kg/injection, schedule: Q01DX005 (ip), vehicle: saline with Tween-80) 90 % of control.

For the compound `COC1=CC(=O)C=C(OC)C1=O`, the T/C runs as follows: (dose: 0.5 mg/kg/injection, schedule: Q01DX009 (ip), vehicle: saline with Tween-80) 109 % of control; (dose: 1.0 mg/kg/injection, schedule: Q01DX009 (ip), vehicle: saline with Tween-80) 113 % of control; (dose: 2.0 mg/kg/injection, schedule: Q01DX009 (ip), vehicle: saline with Tween-80) 119 % of control; (dose: 4.0 mg/kg/injection, schedule: Q01DX009 (ip), vehicle: saline with Tween-80) 111 % of control.

On to `COc1cc(CCCNC(C)=O)cc(OC)c1OC`, for which the T/C runs as follows: (dose: 25.0 mg/kg/injection, schedule: Q01DX005 (ip), vehicle: water) 105 % of control; (dose: 50.0 mg/kg/injection, schedule: Q01DX005 (ip), vehicle: water) 98 % of control; (dose: 100.0 mg/kg/injection, schedule: Q01DX005 (ip), vehicle: water) 96 % of control; (dose: 200.0 mg/kg/injection, schedule: Q01DX005 (ip), vehicle: water) 98 % of control.

For `OCC(O)c1c(-c2ccc(Cl)cc2)c(-c2ccccc2)c2n1CCC2` (stereo not drawn), the T/C by setting is: under setting [1], 97 % of control; under setting [2], 100 % of control; under setting [3], 90 % of control.

For `CN1CCN(c2cc3nc[nH]c(=O)c3cc2[N+](=O)[O-])CC1`, the T/C by setting is: (dose: 50.0 mg/kg/injection, schedule: Q04DX003 (ip), vehicle: Klucel (hydroxypropylcellulose) (HPC)) 99 % of control; (dose: 100.0 mg/kg/injection, schedule: Q04DX003 (ip), vehicle: Klucel (hydroxypropylcellulose) (HPC)) 104 % of control.

Turning to `Cc1ccc(N/N=c2\c3nc4ccccc4nc2n(-c2ccccc2C)c(=S)n3-c2ccccn2)cc1`, the T/C under setting [4] was 100 % of control and the T/C under setting [5] was 96 % of control.

With `CC(=O)NC1CCOC1=O` (stereo not drawn), the T/C by setting is: (dose: 12.5 mg/kg/injection, schedule: Q01DX009 (ip), vehicle: water) 95 % of control; (dose: 25.0 mg/kg/injection, schedule: Q01DX009 (ip), vehicle: water) 87 % of control; (dose: 50.0 mg/kg/injection, schedule: Q01DX009 (ip), vehicle: water) 109 % of control; (dose: 100.0 mg/kg/injection, schedule: Q01DX009 (ip), vehicle: water) 111 % of control; (dose: 200.0 mg/kg/injection, schedule: Q01DX009 (ip), vehicle: water) 92 % of control.

On to `NC(=S)c1cccc(/C=N/Nc2ccccn2)c1`, for which the T/C was 96 % of control (dose: 100.0 mg/kg/injection, schedule: Q01DX001 (ip), vehicle: saline); 94 % of control (dose: 200.0 mg/kg/injection, schedule: Q01DX001 (ip), vehicle: saline); 96 % of control (dose: 400.0 mg/kg/injection, schedule: Q01DX001 (ip), vehicle: saline).

Regarding `CCOC(=O)/C(C#N)=C/NCC1CC1`, the T/C (dose: 60.0 mg/kg/injection, schedule: Q01DX005 (ip), vehicle: Klucel (hydroxypropylcellulose) (HPC)) is 102 % of control; the T/C (dose: 120.0 mg/kg/injection, schedule: Q01DX005 (ip), vehicle: Klucel (hydroxypropylcellulose) (HPC)) is 98 % of control; the T/C (dose: 240.0 mg/kg/injection, schedule: Q01DX005 (ip), vehicle: Klucel (hydroxypropylcellulose) (HPC)) is 98 % of control.

Take `COc1cccc2c1C(=O)c1c(O)c3c(c(O)c1C2=O)C[C@@](O)(C(C)O)C[C@@H]3OC1CC(N)C(O)C(C)O1` (stereo partly drawn): the T/C reads like this: (dose: 1.08 mg/kg/injection, schedule: Q01DX009 (ip), vehicle: saline) 168 % of control; (dose: 1.8 mg/kg/injection, schedule: Q01DX009 (ip), vehicle: saline) 163 % of control and 172 % of control; (dose: 3.0 mg/kg/injection, schedule: Q01DX009 (ip), vehicle: saline) 159 % of control and 173 % of control; (dose: 3.0 mg/kg/injection, schedule: Q04DX003 (ip), vehicle: saline) 150 % of control; (dose: 5.0 mg/kg/injection, schedule: Q01DX009 (ip), vehicle: saline) 173 % of control and 195 % of control; (dose: 5.0 mg/kg/injection, schedule: Q04DX003 (ip), vehicle: saline) 154 % of control. For the same compound, the T/C is, setting by setting: (dose: 8.0 mg/kg/injection, schedule: Q01DX001 (ip), vehicle: saline) 154 % of control; (dose: 8.0 mg/kg/injection, schedule: Q01DX009 (ip), vehicle: saline) 150 % of control; (dose: 8.0 mg/kg/injection, schedule: Q04DX003 (ip), vehicle: saline) 163 % of control; (dose: 13.3 mg/kg/injection, schedule: Q01DX009 (ip), vehicle: saline) 90 % of control; (dose: 13.3 mg/kg/injection, schedule: Q04DX003 (ip), vehicle: saline) 172 % of control; (dose: 22.2 mg/kg/injection, schedule: Q01DX001 (ip), vehicle: saline) 181 % of control. In addition, the T/C runs as follows: (dose: 37.0 mg/kg/injection, schedule: Q01DX001 (ip), vehicle: saline) 163 % of control; (dose: 37.0 mg/kg/injection, schedule: Q04DX003 (ip), vehicle: saline) 100 % of control; (dose: 61.7 mg/kg/injection, schedule: Q01DX001 (ip), vehicle: saline) 90 % of control.

On to `O=C1c2ccccc2C(=O)c2c1ccc1ccccc21`, for which the T/C was 99 % of control under setting [4] and 89 % of control under setting [5].

On to `CC(NNC(=S)N1CC2CCC(CC2)C1)c1nccc2ccccc12` (stereo not drawn), for which the T/C is, setting by setting: (dose: 12.5 mg/kg/injection, schedule: Q01DX005 (ip), vehicle: saline with Tween-80) 110 % of control; (dose: 25.0 mg/kg/injection, schedule: Q01DX005 (ip), vehicle: saline with Tween-80) 103 % of control; under setting [4], 119 % of control.

As to `CC(c1ccccc1)c1cc(C(C)(C)C)c(O)c(C(C)(C)C)c1` (stereo not drawn), the T/C is 100 % of control (dose: 50.0 mg/kg/injection, schedule: Q01DX005 (ip), vehicle: distilled water + alcohol); 99 % of control (dose: 100.0 mg/kg/injection, schedule: Q01DX005 (ip), vehicle: distilled water + alcohol); 93 % of control (dose: 200.0 mg/kg/injection, schedule: Q01DX005 (ip), vehicle: distilled water + alcohol).

As for `C/C=C1\CN2CC[C@H]1C[C@H]2[C@H](O)c1ccnc2ccc(NCCO)cc12`, the T/C was 94 % of control (dose: 50.0 mg/kg/injection, schedule: Q01DX005 (ip), vehicle: saline); 99 % of control (dose: 100.0 mg/kg/injection, schedule: Q01DX005 (ip), vehicle: saline); 99 % of control (dose: 200.0 mg/kg/injection, schedule: Q01DX005 (ip), vehicle: saline).

As to `CN(C)C1C(=O)C(C(=O)NC[N+]23CCO[B-]2(c2ccc(Cl)cc2)OCC3)=C(O)C2(O)C(=O)C3=C(O)c4c(O)cccc4C(C)(O)C3CC12` (stereo not drawn), the T/C was 111 % of control (dose: 25.0 mg/kg/injection, schedule: Q01DX005 (ip), vehicle: Klucel (hydroxypropylcellulose) (HPC)); 107 % of control and 108 % of control and 110 % of control under setting [1]; 108 % of control (2×) and 114 % of control under setting [2]; 108 % of control and 119 % of control and 120 % of control under setting [3].

For `CCOC(=O)c1c(-c2ccccc2)csc1NC(=O)CN1CCCCC1`, the T/C was 98 % of control under setting [4]; 114 % of control under setting [5]; 113 % of control (dose: 200.0 mg/kg/injection, schedule: Q01DX005 (ip), vehicle: saline with Tween-80).

For the compound `Cc1ccc(S(=O)(=O)N/N=C2/C=CC3(CCCC3)CC2)cc1`, the T/C reads like this: (dose: 50.0 mg/kg/injection, schedule: Q01DX001 (ip), vehicle: Klucel (hydroxypropylcellulose) (HPC)) 88 % of control; (dose: 100.0 mg/kg/injection, schedule: Q01DX001 (ip), vehicle: Klucel (hydroxypropylcellulose) (HPC)) 91 % of control; (dose: 200.0 mg/kg/injection, schedule: Q01DX001 (ip), vehicle: Klucel (hydroxypropylcellulose) (HPC)) 88 % of control and 90 % of control; (dose: 400.0 mg/kg/injection, schedule: Q01DX001 (ip), vehicle: Klucel (hydroxypropylcellulose) (HPC)) 89 % of control.

In the case of `C/C=C1\CC2(OC1=O)C(=O)NC(=O)NC2=O`, the T/C was 103 % of control (dose: 50.0 mg/kg/injection, schedule: Q01DX009 (ip), vehicle: saline) and 94 % of control (dose: 100.0 mg/kg/injection, schedule: Q01DX009 (ip), vehicle: saline).

Values taken from PubChem BioAssay AID330 (DTP/NCI, 2004).
